Reference: patent US9169217B2, “Arylalkyl esters of 4-amino-6-(substituted phenyl)-picolinates and 6-amino-2-(substituted phenyl)-pyrimidinecarboxylates and their use as selective herbicides for crops” (Dow AgroSciences LLC, priority 2011, dated 2015)

Legend:
[1] = tested on: Scirpus juncoides ROXB. (Japanese bulrush); experiment: In-water applied herbicidal activity in transplanted paddy rice (Example 17); type: in vivo; details: Schoenoplectiella juncoides, 504 h; rice cropping systems, in-water applied (paddy), 35 g ae/ha, 21 DAA; may represent multiple trials; read-out: Visual Injury (%) SCPJU
How it was run: (§1)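 Ester forms of test compounds, in acetone diluted with aqueous Agri-dex (final 1.25% v/v crop oil concentrate), were injected into the flood water of paddy pots holding weeds or rice at the 2nd–3rd leaf stage in mud (pH ~7.3–7.8). Visual injury versus untreated plants was scored 0–100% after 3 weeks in greenhouse (~29/26 °C). GR50/GR80 were derived by probit analysis.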

[2] = tested on: Echinochloa crus-galli (L.) P.BEAUV. (barnyardgrass); experiment: as above; type: in vivo; details: Echinochloa crus-galli, 504 h; rice cropping systems, in-water applied (paddy), 35 g ae/ha, 21 DAA; may represent multiple trials; read-out: Visual Injury (%) ECHCG
How it was run: as §1

[3] = tested on: Cyperus esculentus L. (yellow nutsedge); experiment: Postemergence foliar-applied herbicidal activity in direct seeded rice (Example 16); type: in vivo; details: rice cropping systems, 17.5 g ae/ha, 21 DAA, may represent multiple trials
How it was run: (§2)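 Greenhouse plants at 2nd–3rd true leaf stage (10–17 d, ~29/26 °C, 14-h photoperiod) sprayed postemergence with ester forms in acetone–DMSO plus 1.25% crop oil concentrate at 187 L/ha. Visual injury scored 0–100% versus untreated plants after 3 weeks; GR50/GR80 derived by probit analysis.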

[4] = tested on: Echinochloa colonum (L.) LINK (junglerice); experiment: as above; type: in vivo; details: Echinochloa colona, post-emergence, 504 h, rice cropping systems, 17.5 g ae/ha, 21 DAA, may represent multiple trials, read-out: Visual Injury (%) ECHCO
How it was run: as §2

[5] = tested on: Scirpus juncoides ROXB. (Japanese bulrush); experiment: as above; type: in vivo; details: Schoenoplectiella juncoides, post-emergence, 504 h; rice cropping systems, foliar-applied, 17.5 g ae/ha, 21 DAA; may represent multiple trials; read-out: Visual Injury (%) SCPJU
How it was run: as §2

[6] = tested on: Cyperus iria L. (rice flatsedge); experiment: as above; type: in vivo; details: rice cropping systems, 17.5 g ae/ha, 21 DAA, may represent multiple trials
How it was run: as §2

[7] = tested on: Echinochloa crus-galli (L.) P.BEAUV. (barnyardgrass); experiment: as above; type: in vivo; details: rice cropping systems, 17.5 g ae/ha, 21 DAA, may represent multiple trials
How it was run: as §2

[8] = tested on: Aeschynomene sensitive SW./L. (sensitive jointvetch); experiment: as above; type: in vivo; details: rice cropping systems, 17.5 g ae/ha, 21 DAA, may represent multiple trials
How it was run: as §2

[9] = tested on: Sesbania exaltata (RAF.) CORY/RYDB. (hemp sesbania); experiment: as above; type: in vivo; details: rice cropping systems, 17.5 g ae/ha, 21 DAA, may represent multiple trials
How it was run: as §2

Row | melting point [°C] | Compound | pest or weed control at 35 g/ha [1] [%] | pest or weed control at 35 g/ha [2] [%] | Visual Injury (%) CYPES [3] [%] | pest or weed control at 17.5 g/ha [4] [%] | pest or weed control at 17.5 g/ha [5] [%] | Visual Injury (%) CYPIR [6] [%] | Visual Injury (%) ECHCG [7] [%] | Visual Injury (%) AESSE [8] [%] | Visual Injury (%) SEBEX [9] [%]
1 | 122 to 124 | CCOc1c(Cl)ccc(-c2nc(C(=O)OCc3ccccc3)c(Cl)c(N)c2F)c1F [Compound 41, benzyl 4-amino-3-chloro-6-(4-chloro-3-ethoxy-2-fluorophenyl)-5-fluoropicolinate] | 100 | 95 | 100 | 95 | 90 | 100 | 95 | 100 | 99
2 | 170 to 172 | CCOc1c(Cl)ccc(-c2nc(C(=O)OC)c(Cl)c(N)c2F)c1F [Compound A, methyl 4-amino-3-chloro-6-(4-chloro-3-ethoxy-2-fluorophenyl)-5-fluoropicolinate] | 60 | 40 | 60 | 50 | 20 | 80 | 60 | 0 | 20
